# Source: patent publication US20100197753A1, “Benzamides Useful as S1P Receptor Modulators” (Novartis AG, priority 2007, published 2010)
# Key:
# Assay type in all cases: biochemical
# human S1P1 receptor = molecular target: T1, human S1P1 receptor (Homo sapiens, UniProt P21453); assay: 35S-GTPγS binding assay (Test 1), S1P1; conditions: membrane protein of transfected CHO cells, SPA; for EC50: read-out: EC50, receptor subtype S1P1
# T1 construct: expressed in transfected cells; host or cells: CHO-K1 (ATCC CCL 61); RH7777 may also be used
# Protocol: (§1) Test 1: ^35S-GTPγS Binding Assay
# (§2) The S1P receptor modulating properties of an agent of the invention are tested on the human S1P1, S1P2, S1P3, S1P4 and S1P5, respectively, receptor subtypes. The functional receptor activation is assessed by quantifying the compound-induced ^35S-GTPγS binding to membrane protein prepared from transfected heterologous cells stably expressing the appropriate S1P receptor subtype. CHO cells (CHO-K1, Chinese hamster, ATCC no. CCL 61) are used [RH7777 cells (rat Morris hepatoma, ATCC no. CRL 1601) may also be used]. The membrane protein is prepared from wild-type cells and from different cell clones expressing the appropriate S1P receptor subtype. The assay technology used is SPA (scintillation proximity based assay). A DMSO solution of the test compound is serially diluted and added to SPA-bead (Amersham-Pharmacia) immobilised S1P receptor subtype expressing membrane protein (1 to 20 μg/well) in the presence of 50 mM HEPES, 100 mM NaCl, 10 mM MgCl2, 10 μM GDP, 0.1% fat free BSA and 0.2 nM ^35S-GTPγS (1200 Ci/mmol) (pH 7.4). After incubation in 96 well microtiter plates at room temperature for 120 minutes, the unbound ^35S-GTPγS is separated by centrifugation. The luminescence of SPA beads triggered by membrane bound ^35S-GTPγS is quantified with a TOPcount plate reader (Packard). To evaluate the S1P receptor modulation, the stimulation (in %) compared to the baseline is calculated as the binding in the presence of the compound divided by the binding in the absence of a ligand, multiplied by 100. Dose response curves are plotted using a non-linear regression curve fitting program, and the EC50 is defined as the concentration of the compound required to give 50% of its maximum stimulation. Preferably, the EC50 value of an agent of the invention in this test is 10′000 nM or less. The selectivity of the compound towards the S1P receptor subtypes is determined by measuring for each of the different S1P receptor subtypes the level of ^35S-GTPγS binding in the presence of the compound using each of the different membrane proteins.
# human S1P4 receptor = molecular target: T2, human S1P4 receptor (Homo sapiens, UniProt O95977); assay: 35S-GTPγS binding assay (Test 1), S1P4; conditions: membrane protein of transfected CHO cells, SPA; for EC50: read-out: EC50, receptor subtype S1P4
# T2 construct: expressed in transfected cells; host or cells: CHO-K1 (ATCC CCL 61); RH7777 may also be used
# T2 sequence (O95977 1-384): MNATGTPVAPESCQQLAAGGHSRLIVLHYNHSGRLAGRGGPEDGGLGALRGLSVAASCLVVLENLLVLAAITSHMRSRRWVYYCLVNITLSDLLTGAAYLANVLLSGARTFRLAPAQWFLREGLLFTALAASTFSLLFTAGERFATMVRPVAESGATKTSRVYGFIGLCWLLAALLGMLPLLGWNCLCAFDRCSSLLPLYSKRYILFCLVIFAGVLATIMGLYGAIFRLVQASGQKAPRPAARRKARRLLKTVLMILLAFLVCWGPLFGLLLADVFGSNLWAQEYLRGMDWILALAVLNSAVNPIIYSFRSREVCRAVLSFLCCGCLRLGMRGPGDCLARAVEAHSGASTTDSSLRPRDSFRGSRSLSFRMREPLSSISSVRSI
# Protocol: as §1, §2
# human S1P5 receptor = molecular target: T3, human S1P5 receptor (Homo sapiens, UniProt Q9H228); assay: 35S-GTPγS binding assay (Test 1), S1P5; conditions: membrane protein of transfected CHO cells, SPA; for EC50: read-out: EC50, receptor subtype S1P5
# T3 construct: expressed in transfected cells; host or cells: CHO-K1 (ATCC CCL 61); RH7777 may also be used
# Protocol: as §1, §2
# T3 sequence (Q9H228 whole entry): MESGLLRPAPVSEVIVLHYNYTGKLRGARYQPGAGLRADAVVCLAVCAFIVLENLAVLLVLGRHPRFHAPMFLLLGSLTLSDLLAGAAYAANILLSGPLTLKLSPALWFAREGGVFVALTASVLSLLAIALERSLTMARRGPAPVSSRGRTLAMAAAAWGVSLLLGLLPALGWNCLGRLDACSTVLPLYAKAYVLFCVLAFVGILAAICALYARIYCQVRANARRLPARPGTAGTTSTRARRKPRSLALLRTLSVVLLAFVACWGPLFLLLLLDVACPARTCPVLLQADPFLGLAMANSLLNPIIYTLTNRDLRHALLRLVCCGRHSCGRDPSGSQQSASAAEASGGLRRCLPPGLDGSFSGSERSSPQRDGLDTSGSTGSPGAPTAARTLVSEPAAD
# T1 sequence (P21453 whole entry): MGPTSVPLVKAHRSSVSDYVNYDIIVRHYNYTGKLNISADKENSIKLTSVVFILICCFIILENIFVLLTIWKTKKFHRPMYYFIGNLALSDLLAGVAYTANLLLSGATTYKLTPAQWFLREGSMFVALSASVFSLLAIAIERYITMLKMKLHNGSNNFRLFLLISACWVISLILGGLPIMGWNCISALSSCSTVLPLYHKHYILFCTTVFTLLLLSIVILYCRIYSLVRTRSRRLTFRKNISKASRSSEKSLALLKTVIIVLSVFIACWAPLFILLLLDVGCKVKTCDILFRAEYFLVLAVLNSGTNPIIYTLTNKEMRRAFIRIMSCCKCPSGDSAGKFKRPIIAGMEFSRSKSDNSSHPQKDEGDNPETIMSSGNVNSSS
"efficacy, receptor subtype S1P1 (human S1P1 receptor)",EC50 (human S1P1 receptor),"efficacy, receptor subtype S1P4 (human S1P4 receptor)",EC50 (human S1P4 receptor),"efficacy, receptor subtype S1P5 (human S1P5 receptor)",EC50 (human S1P5 receptor),SMILES
93%,150 nM,109%,160 nM,66%,90 nM,"Cc1cc(C)c(Nc2ccc(Cl)cc2C(N)=O)c(C)c1 [Example 37, 5-Chloro-2-(2,4,6-trimethyl-phenylamino)-benzamide]"
85%,495 nM,130%,106 nM,93%,25 nM,"CCCn1nccc1-c1ccc(Nc2c(C)cc(C)cc2C)c(C(N)=O)c1 [Example 27, 5-(2-Propyl-2H-pyrazol-3-yl)-2-(2,4,6-trimethyl-phenylamino)-benzamide]"
87%,305 nM,126%,210 nM,64%,80 nM,"COc1ccc(Nc2c(C)cc(C)cc2C)c(C(N)=O)c1 [Example 36, 5-Methoxy-2-(2,4,6-trimethyl-phenylamino)-benzamide]"
